Experimental data taken from patent publication US11649245B2, “Cyclopropylamine compound as LSD1 inhibitor and use thereof” (HELIOEAST PHARMACEUTICAL CO., LTD., priority 2018, dated 2023).
Counter-ions that a name gives are not always drawn. Like-named read-outs stand apart in the source and are kept apart here.

Experiments:
[1] = tested on: human small cell lung cancer NCI-H1417 xenograft tumor model; experiment: In vivo pharmacodynamic study on NCI-H1417 subcutaneous xenograft tumor in CB-17 SCID mice; settings: compound 6 hydrochloride 1.5 mg/kg oral once a day, cisplatin 1 mg/kg i.p. twice a week
Description: The purpose of the experiment was to evaluate the in vivo efficacy of the compounds of the present disclosure on subcutaneous xenograft tumor of human small cell lung cancer NCI-H1417 cells in a CB-17 SCID mouse model.
Human small cell lung cancer NCI-H1417 cells (ATCC) were cultured in vitro in a single layer, the culture conditions were RPMI-1640 culture medium supplemented with 10% fetal bovine serum, 37° C. 5% CO2. When the cell saturation reached 80%-90%, the cells were collected, counted, and inoculated.
0.2 mL of 10×10^6 NCI-H1417 cells were subcutaneously inoculated into the right back of each mouse (PBS: Matrigel=1:1). Group administration was started when the average volume reached 100-150 mm^3.
The vehicle used in the experiment was 0.5% methylcellulose solution, the preparation method was: 5 g of methylcellulose was weighed and dissolved in 800 mL ultrapure water, stirred evenly and made up to 1000 mL with ultrapure water. The test substance was dissolved in a solvent and prepared into a uniform solution of a certain concentration, and stored at 4° C.
Cisplatin (Cisplatin, manufacturer Qilu Pharmaceutical Co., Ltd., 10 mg/bottle freeze-dried powder for injection, lot number 7D011A8) was added to 10 mL 0.9% NaCl to make a 1 mg/mL mother liquor, and stored at room temperature and protected from light. The mother liquor was aliquoted into 0.63 mL and stored at room temperature. 5.67 mL 0.9% NaCl was added to one of the 0.63 mL mother liquor to make a 0.1 mg/mL solution.
The experimental indicator is to investigate whether tumor growth was inhibited, delayed, or cured. Tumor diameters were measured with a vernier caliper twice a week. The tumor volume was calculated by the calculation formula: V=0.5a×b^2, a and b respectively represent the long and short diameters of the tumor.
The anti-tumor effect of the compounds was evaluated by TGI (%). TGI (%) can reflect the tumor growth inhibition rate. TGI (%) calculation: TGI (%)=[1-(the average tumor volume at the end of the administration in a treatment group—the average tumor volume at the beginning of the administration in the treatment group)/(the average tumor volume at the end of the treatment of the solvent control group—the average tumor volume at the beginning of the treatment of the solvent control group)]×100%.

MV-4-11 cells = experiment: Antiproliferation activity on MV-4-11 cells (CellTiter-Glo, 6 days); assay type: cell-based; settings: incubated for 6 days
Description: Experimental purpose: to detect the antiproliferation activity of the compound to be tested on MV-4-11 cells.
(§1) Experimental materials: IMDM culture medium, fetal bovine serum, penicillin/streptomycin antibiotics purchased from Wisent. CellTiter-Glo (chemiluminescent cell viability assay reagent) reagents purchased from Promega. MV-4-11 cell line was purchased from Nanjing Cobioer Co., Ltd. Nivo Multi-Marker Analyzer (PerkinElmer).
Experimental method: MV-4-11 cells were planted in a white 96-well plate, 80 μL of cell suspension per well, which contained 6000 MV-4-11 cells. The cell plate was placed in a carbon dioxide incubator for overnight culture.
The compounds to be tested were diluted 5-fold with a pipet until the 8th concentration, i.e., diluted from 2 mM to 25.6 nM, double duplicate well experiment was set. 78 μL of the culture medium was added to an intermediate plate, and then 2 μL per well of the serially diluted compounds were transferred to the corresponding positions on the intermediate plate, after mixing, 20 μL per well was transferred to the cell plate. The cell plate was incubated in a carbon dioxide incubator for 6 days. Another cell plate was prepared and the signal value on the day of dosing was read as the maximum value (Max value in the equation below) to participate in the data analysis. 25 μL of the chemiluminescent cell viability assay reagent was added to each well of this cell plate, which was incubated at room temperature for 10 minutes to stabilize the luminescence signal. The multi-label analyzer was used for reading.
(§2) Data analysis: the equation (Sample-Min)/(Max-Min)*100% was used to convert the original data into the inhibition rate, the IC50 value can be obtained by curve fitting of four-parameters (“log(inhibitor) vs. response—Variable slope” mode in GraphPad Prism)).

NCI-H1417 cells = experiment: Antiproliferation activity on NCI-H1417 cells (CellTiter-Glo, 10 days); assay type: cell-based, human; settings: incubated for 10 days
Description: Experimental purpose: to detect the antiproliferation activity of the compounds on NCI-H1417 cells.
Experimental materials: RPMI 1640 culture medium, fetal bovine serum, Promega CellTiter-Glo reagent. NCI-H1417 cell line purchased from ATCC. Envision multi-label reader (PerkinElmer).
Experimental method: the compounds were dissolved to 10 mM, then the compounds were diluted 5 times with DMSO in a compound plate, the compounds were diluted 3-fold with Bravo from a starting concentration of 2 mM to the 10th concentration, 250 nL of the solutions were transferred to the upper and lower duplicate wells on a blank 384 cell plate by Echo transfer plate, cell suspension of per well/1000 cells/50 μL was added to the transferred 250 nL DMSO/compound, the compounds were diluted 200-fold, i.e., the initial action concentration was 10 μM. The cell plate was placed in a carbon dioxide incubator and incubated for 10 days. 25 μL of Promega CellTiter-Glo reagent was added to each well on the cell plate and was shaken at room temperature for 10 minutes to stabilize the luminescence signal. Readings were performed by PerkinElmer Envision multi-label analyzer.
Data analysis: the equation (Max-Ratio)/(Max-Min)*100% was used to convert the original data into the inhibition rate, the value of IC50 can be obtained by curve fitting of four-parameters (the 205 mode in XLFITS, iDBS).

[2] = In vivo pharmacokinetics in CD-1 mice; settings: male CD-1 mice; for Cmax: route not given, read-out: Max concentration Cmax
Description: CD-1 mice (male, 7-9 weeks old, Shanghai Slac)
The rodent pharmacokinetic characteristics after intravenous injection and oral administration of the compounds were tested by standard protocols, in the experiment, the candidate compounds were formulated into clear solutions and administrated to mice via a single intravenous injection and oral administration. The vehicle for intravenous injection and oral administration was a mixed solution of 10% of dimethyl sulfoxide and 90% of 10% hydroxypropyl β cyclodextrin. This project used four male CD-1 mice, two mice were administered intravenously, with a dose of 1 mg/kg, and plasma samples were collected at 0 hour (before administration) and 0.0833, 0.25, 0.5, 1, 2, 4, 8, 24 hours after administration. The other two mice were orally administered by gavage, with a dose of 2 mg/kg, plasma samples were collected at 0 hour (before administration) and 0.25, 0.5, 1, 2, 4, 8, 24 hours after administration, whole blood samples were collected within 24 hours, which were centrifuged at 3000 g for 15 minutes, and the supernatants were separated to obtain plasma samples, 4 times volume of acetonitrile solutions containing internal standard were added to precipitate the protein, the mixtures were centrifuged to obtain the supernatants, the supernatants were added with water of equal volume and centrifuged again to take the supernatant for injection, and the blood drug concentration was quantitatively analyzed by the LC-MS/MS analysis method, and pharmacokinetic parameters were calculated, such as max concentration (Cmax), clearance (CL), half-life (T1/2), volumes of distribution (Vdss), the area under the plasma concentration-time curve (AUC0-last), bioavailability (F) etc.

human LSD1 = human LSD1 (Homo sapiens, UniProt O60341); experiment: In vitro enzyme activity screening against LSD1 (HRP/Amplex Red fluorescence coupling enzyme method); assay type: biochemical; settings: human LSD1, histone H3K4me peptide substrate 20 μM
Description: The purpose of this test was to detect the in vitro inhibitory activity of the compounds against LSD1. The enzyme used in this test was human LSD1, the standard substrate was histone H3K4me peptide (20 μM), the fluorescence coupling enzyme method was used to determine the activity of the compound by combining horseradish peroxidase (HRP) and fluorescent reagent Amplex Red to detect the H2O2 generation as a result of the reaction of LSD1. Compounds were tested in 10-dose IC50 mode with a 3-fold serial dilution starting at 10 μM. The enzyme and […] to start the reaction. Fluorescence detector: Envision, excitation wavelength: Ex/Em=530/590 […]

HL60 cells = experiment: Antiproliferation activity on HL60 cells (CellTiter-Glo, 6 days); assay type: cell-based; settings: incubated for 6 days
Description: Experimental purpose: to detect the antiproliferation activity of the compound to be tested on HL60 cells.
as §1, with “RPMI-1640” for “IMDM”, “HL60” for “MV-4-11”, “line” for “line was”, “multi-label reader” for “Multi-Marker Analyzer”
Experimental method: HL60 cells were planted in a white 384-well plate, 40 μL of cell suspension per well, 600 HL60 cells were contained therein. The cell plate was placed in a carbon dioxide incubator for overnight culture. The compounds to be tested were diluted 5-fold with a pipet until the 10th concentration, i.e., diluted from 2 mM to 1.024 nM, double duplicate well experiment was set. 78 μL of the culture medium was added to an intermediate plate, and then 2 μL per well of the serially diluted compounds were transferred to the corresponding positions on the intermediate plate, after mixing, 10 μL per well was transferred to the cell plate. The cell plate was incubated in a carbon dioxide incubator for 6 days. Another cell plate was prepared and the signal value on the day of dosing was read as the maximum value (Max value in the equation below) to participate in the data analysis. 20 μL of chemiluminescent cell viability assay reagent was added to each well of this cell plate, which was incubated at room temperature for 10 minutes to stabilize the luminescence signal. The multi-label reader was used for reading.
as §2

[3] = oral 2 mg/kg vs intravenous 1 mg/kg
[4] = study doses 1 mg/kg intravenous, 2 mg/kg oral

Row | IC50 (MV-4-11 cells) [nM] | Half-life T1/2 (IV) ([2]; IV 1 mg/kg, 1 mg/kg) [min] | The area under the plasma concentration-time curve AUC0-last PO ([2]; PO 2 mg/kg, 2 mg/kg) [µM·h] | Bioavailability F [2, 3] [%] | Clearance CL [2, 4] [mL/min/kg] | Volumes of distribution Vdss [2, 4] [L/kg] | Cmax [2, 4] [nM] | IC50 (human LSD1) [nM] | IC50 (NCI-H1417 cells; Homo sapiens, NCI-H1417, 240 h) [nM] | IC50 (HL60 cells; Homo sapiens, HL-60, 144 h) [nM] | SMILES | also measured
1 |  |  |  |  |  |  |  |  |  |  | N.N.[Cl][Pt][Cl] [Cisplatin, reference compound] | Tumor volume mean ± SEM (28th day) ([1]; CB-17 SCID mice): 165 ± 22 mm^3; TGI ([1]; tumor growth inhibition rate, 28th day): 85.9%
2 | 13.2 | 29.4 | 0.765 | 39.1 | 41.8 | 0.835 | 919 | 353 |  |  | O=C(O)c1ccc(CN2CCC3(CC2)CC(N[C@@H]2C[C@H]2c2ccccc2)CO3)cc1 (some centres unmarked) [Hydrochloride of the compound 15] | IC50 (NCI-H1417 cells): 13.1 nM; IC50 (HL60 cells): 13.8 nM
3 | 13.7 | 34.7 | 0.891 | 36.9 | 33.8 | 0.88 | 860 | 262 | 12.1 | 8.46 | O=C(O)c1ccc(CN2CCC3(CC2)CC(N[C@@H]2C[C@H]2c2ccccc2)CO3)cc1 (some centres unmarked) [Hydrochloride of the compound 16] | 
4 |  |  |  |  |  |  |  | 242 | 3.99 | 8.99 | O=C(O)c1ccc(CN2CCC3(CC2)CC(N[C@@H]2C[C@H]2c2ccccc2)CO3)cn1 (some centres unmarked) [Hydrochloride of the compound 20] | IC50 (MV-4-11 cells; Homo sapiens, MV4-11, 144 h): 9.56 nM; half-life ([2]; male, CD-1, mouse, plasma, iv, 1 mg/kg, IV 1 mg/kg, read-out: Half-life T1/2 (IV) (converted)): 54.3 min; clearance ([2]; male, CD-1, mouse, plasma, iv, 1 mg/kg, study doses 1 mg/kg intravenous, 2 mg/kg oral, read-out: Clearance CL): 19.7 mL/min/kg; Vd ([2]; male, CD-1, mouse, plasma, iv, 1 mg/kg, study doses 1 mg/kg intravenous, 2 mg/kg oral, read-out: Volumes of distribution Vdss): 0.752 L/kg; Cmax ([2]; male, CD-1, mouse, plasma, study doses 1 mg/kg intravenous, 2 mg/kg oral): 714 nM; AUC(0-t) ([2]; male, CD-1, mouse, plasma, po, 2 mg/kg, PO 2 mg/kg, read-out: The area under the plasma concentration-time curve AUC0-last PO): 1.34 µM·h; bioavailability ([2]; male, CD-1, mouse, plasma, po, 2 mg/kg, oral 2 mg/kg vs intravenous 1 mg/kg, read-out: Bioavailability F): 29%
